Measurements as given in patent US20180021360A1, “Combination Therapy Regimen For Treatment Of Selected HCV Genotypes” (JANSSEN PHARMACEUTICALS, INC., priority 2016, published 2018).

Key:
[1] = Phase-1 drug-drug interaction study of Odalasvir, Simeprevir and Compound (III) in healthy volunteers; format: in vivo, human
From the text: The following daily doses were employed:

[2] = PK of single agents vs fixed dose combinations, single dose in healthy volunteers (Example 13); format: in vivo, human; conditions: mean ± SD
Experimental: SMV (100 mg), ODV (50 mg), and Compound (III) (800 mg) were administered as three different formulations or together as single doses in vivo to healthy volunteers. The arms of the study included: • Arm 1 (Reference Arm): Single oral doses of single agents, one SMV 100-mg capsule, one ODV 50-mg tablet as granule layered solid dispersion with copovidone and poloxamers, and two Compound (III) 400-mg tablets, administered together. • Arm 2: Single oral dose of fixed dose combination (FDC02): SMV 100 mg+ODV 50 mg as a spray dried solid dispersion with HPMC-AS L in a ratio ODV/HPMC-AS L 1/1 w/w+Compound (III) 800 mg • Arm 3: Single oral dose of fixed dose combination (FDC04): SMV 100 mg+ODV 50 mg as a spray dried solid dispersion with HPMC-AS L in a ratio ODV/HPMC-AS L 1/3 w/w+Compound (III) 800 mg • Arm 4: Single oral dose of fixed dose combination (FDC01): SMV 100 mg+ODV 50 mg as a spray dried solid dispersion with copovidone and poloxamers+Compound (III) 800 mg
PK parameters, including Cmax, tmax, AUClast, and AUC∞ were measured for Compound (III), ODV, SMV, and metabolites Compound A-1 and Compound A-3 for each Arm of the study. Arms that included fixed dose combinations (FDC) (Arm 2, Arm 3, and Arm 4) were then compared to a single oral dose (Arm 1, the reference Arm). Table 9, Table 10, Table 11, Table 12 and Table 13 display relevant PK parameters and FIG. 9, FIG. 10, FIG. 11, FIG. 12, and FIG. 13 depict the plasma concentration over time of SMV, ODV, Compound A-1, and Compound A-3 for each Arm of the study.

HCV genotype 3 = experiment: activity against genotype 3 in vitro; design: species or system hepatitis C virus
BCRP = target: T1, BCRP (Homo sapiens, UniProt Q9UNQ0); conditions: cited from earlier work
T1 sequence (Q9UNQ0 1-655): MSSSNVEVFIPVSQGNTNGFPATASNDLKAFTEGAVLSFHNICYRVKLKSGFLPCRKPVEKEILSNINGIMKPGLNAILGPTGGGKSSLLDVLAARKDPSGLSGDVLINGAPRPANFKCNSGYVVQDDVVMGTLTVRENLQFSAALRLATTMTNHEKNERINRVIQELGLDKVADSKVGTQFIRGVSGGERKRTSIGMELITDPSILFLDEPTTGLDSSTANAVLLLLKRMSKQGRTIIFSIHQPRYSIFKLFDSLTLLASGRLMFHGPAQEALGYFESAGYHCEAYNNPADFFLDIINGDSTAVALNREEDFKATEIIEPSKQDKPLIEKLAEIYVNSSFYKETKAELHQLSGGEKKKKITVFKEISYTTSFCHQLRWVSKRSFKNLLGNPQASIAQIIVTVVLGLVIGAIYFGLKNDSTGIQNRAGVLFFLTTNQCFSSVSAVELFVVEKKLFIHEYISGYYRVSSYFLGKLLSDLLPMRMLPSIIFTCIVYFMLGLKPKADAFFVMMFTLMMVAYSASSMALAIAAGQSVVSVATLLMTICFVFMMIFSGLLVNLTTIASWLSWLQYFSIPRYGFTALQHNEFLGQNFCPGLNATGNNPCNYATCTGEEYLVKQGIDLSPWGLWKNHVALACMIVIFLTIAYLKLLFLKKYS

OATP1B1 = target: T2, OATP1B1 (Homo sapiens, UniProt Q9Y6L6); conditions: cited from earlier work
T2 sequence (Q9Y6L6 1-691): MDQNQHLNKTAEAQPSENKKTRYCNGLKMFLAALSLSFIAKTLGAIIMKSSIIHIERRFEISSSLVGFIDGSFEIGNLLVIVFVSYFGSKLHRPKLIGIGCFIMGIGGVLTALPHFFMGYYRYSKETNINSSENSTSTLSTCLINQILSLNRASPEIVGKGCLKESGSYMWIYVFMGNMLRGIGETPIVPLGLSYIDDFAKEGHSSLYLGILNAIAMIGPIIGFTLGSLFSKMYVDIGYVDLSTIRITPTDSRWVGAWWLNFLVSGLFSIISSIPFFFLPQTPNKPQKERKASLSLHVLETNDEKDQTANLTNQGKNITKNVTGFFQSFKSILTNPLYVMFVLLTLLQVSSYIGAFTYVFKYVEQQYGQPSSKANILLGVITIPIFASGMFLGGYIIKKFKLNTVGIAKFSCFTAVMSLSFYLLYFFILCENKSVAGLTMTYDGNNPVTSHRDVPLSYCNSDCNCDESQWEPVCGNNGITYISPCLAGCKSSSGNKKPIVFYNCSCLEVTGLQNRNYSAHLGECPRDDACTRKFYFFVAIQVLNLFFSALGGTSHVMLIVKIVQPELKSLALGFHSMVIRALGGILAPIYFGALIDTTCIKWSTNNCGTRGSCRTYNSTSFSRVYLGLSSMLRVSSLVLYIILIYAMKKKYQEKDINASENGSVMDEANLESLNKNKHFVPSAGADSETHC

OATP1B3 = target: T3, OATP1B3 (Homo sapiens, UniProt Q9NPD5); conditions: cited from earlier work
T3 sequence (Q9NPD5 1-702): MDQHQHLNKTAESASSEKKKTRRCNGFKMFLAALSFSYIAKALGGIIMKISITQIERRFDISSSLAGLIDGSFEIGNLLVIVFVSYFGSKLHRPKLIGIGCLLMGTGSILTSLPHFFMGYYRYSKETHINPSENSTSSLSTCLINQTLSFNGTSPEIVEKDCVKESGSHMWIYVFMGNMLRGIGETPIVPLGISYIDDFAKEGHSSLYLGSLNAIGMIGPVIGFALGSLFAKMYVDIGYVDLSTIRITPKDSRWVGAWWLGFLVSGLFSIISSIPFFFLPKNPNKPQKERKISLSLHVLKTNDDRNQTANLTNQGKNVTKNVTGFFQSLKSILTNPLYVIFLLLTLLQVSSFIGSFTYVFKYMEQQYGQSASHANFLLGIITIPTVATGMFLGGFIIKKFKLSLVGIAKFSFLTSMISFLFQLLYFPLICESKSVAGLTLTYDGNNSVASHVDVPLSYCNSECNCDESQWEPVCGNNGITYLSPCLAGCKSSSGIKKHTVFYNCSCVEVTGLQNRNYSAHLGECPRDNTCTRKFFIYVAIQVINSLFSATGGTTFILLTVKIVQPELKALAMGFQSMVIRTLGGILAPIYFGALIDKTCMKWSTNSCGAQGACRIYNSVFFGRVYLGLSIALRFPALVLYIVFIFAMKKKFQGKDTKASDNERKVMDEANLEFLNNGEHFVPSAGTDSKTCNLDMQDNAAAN

CYP = CYP inhibition potential; conditions: any CYP
[3] = Phase 2a open-label combination study, pharmacokinetics; format: in vivo, human
Experimental: A randomized, Phase 2a, open-label study was carried out to evaluate the safety, pharmacokinetics and efficacy of the combination of Compound (III), Odalasvir and Simeprevir in Genotype 1 treatment-naïve subjects with chronic hepatitis C. Other treatment-naïve subjects included Genotype 2, 3, 4, 5 and 6.
The aim of the study was to determine the efficacy, pharmacokinetics (PK), and safety of Compound (II)+Odalasvir±SMV in HCV-infected subjects.
This was an open-label study evaluating various dosing regimens of Compound (III)+Odalasvir±SMV for 6-8 weeks in treatment-nave HCV-infected subjects with varying clinical characteristics (e.g., GT 1 or 3, presence/absence of compensated Child Pugh A cirrhosis). Efficacy, PK and safety evaluations were conducted during and through 24 weeks post dosing. Up to 15 cohorts were enrolled; data was generated from cohorts that have completed dosing.

P-gp = P-gp (Homo sapiens, UniProt P08183); conditions: cited from earlier work
MRP2 = MRP2 (Homo sapiens, UniProt Q92887); conditions: cited from earlier work
BSEP = BSEP (Homo sapiens, UniProt O95342); conditions: cited from earlier work
[4] = co-administered with SMV; cited from earlier work
[5] = co-administered with SMV; cited from earlier work; remark: listed apart in the source
[6] = Arm 1 (reference): single agents
[7] = Arm 4: FDC01 (SMV 100 mg + ODV 50 mg spray dried with copovidone and poloxamers + Compound (III) 800 mg)

Sequence of BSEP (O95342 whole entry): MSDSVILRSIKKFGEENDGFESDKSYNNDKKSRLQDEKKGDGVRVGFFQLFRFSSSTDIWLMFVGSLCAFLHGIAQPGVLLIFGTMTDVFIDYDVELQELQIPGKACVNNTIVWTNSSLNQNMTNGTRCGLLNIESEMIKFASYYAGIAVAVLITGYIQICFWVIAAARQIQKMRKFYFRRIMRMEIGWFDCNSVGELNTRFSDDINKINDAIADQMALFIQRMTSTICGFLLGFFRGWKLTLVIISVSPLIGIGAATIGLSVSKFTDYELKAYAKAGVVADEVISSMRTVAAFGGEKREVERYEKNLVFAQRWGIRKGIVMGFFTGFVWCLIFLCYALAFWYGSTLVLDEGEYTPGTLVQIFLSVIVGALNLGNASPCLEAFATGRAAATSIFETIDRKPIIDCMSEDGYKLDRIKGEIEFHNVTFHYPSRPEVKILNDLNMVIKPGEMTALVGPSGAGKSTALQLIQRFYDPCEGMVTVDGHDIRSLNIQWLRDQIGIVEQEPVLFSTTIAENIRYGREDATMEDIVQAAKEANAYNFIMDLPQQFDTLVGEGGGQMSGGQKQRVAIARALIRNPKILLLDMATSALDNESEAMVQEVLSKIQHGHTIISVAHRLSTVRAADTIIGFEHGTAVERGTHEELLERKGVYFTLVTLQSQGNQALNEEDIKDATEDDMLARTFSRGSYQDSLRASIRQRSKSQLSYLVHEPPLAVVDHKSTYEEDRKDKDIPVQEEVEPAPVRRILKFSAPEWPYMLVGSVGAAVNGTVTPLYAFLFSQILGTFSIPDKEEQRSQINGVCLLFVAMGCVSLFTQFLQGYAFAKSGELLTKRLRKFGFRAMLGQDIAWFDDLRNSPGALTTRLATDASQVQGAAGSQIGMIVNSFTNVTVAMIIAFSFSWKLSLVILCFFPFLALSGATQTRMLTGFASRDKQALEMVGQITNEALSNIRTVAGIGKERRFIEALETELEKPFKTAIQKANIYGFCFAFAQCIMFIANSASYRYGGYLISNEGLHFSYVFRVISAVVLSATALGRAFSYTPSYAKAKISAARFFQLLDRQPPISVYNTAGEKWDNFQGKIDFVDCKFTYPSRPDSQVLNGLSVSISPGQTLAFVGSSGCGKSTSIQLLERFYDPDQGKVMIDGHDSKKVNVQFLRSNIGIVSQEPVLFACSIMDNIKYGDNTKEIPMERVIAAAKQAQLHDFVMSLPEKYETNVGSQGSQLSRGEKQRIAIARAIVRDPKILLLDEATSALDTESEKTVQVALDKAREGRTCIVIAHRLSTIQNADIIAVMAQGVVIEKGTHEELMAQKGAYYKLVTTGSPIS
Sequence of P-gp (P08183 whole entry): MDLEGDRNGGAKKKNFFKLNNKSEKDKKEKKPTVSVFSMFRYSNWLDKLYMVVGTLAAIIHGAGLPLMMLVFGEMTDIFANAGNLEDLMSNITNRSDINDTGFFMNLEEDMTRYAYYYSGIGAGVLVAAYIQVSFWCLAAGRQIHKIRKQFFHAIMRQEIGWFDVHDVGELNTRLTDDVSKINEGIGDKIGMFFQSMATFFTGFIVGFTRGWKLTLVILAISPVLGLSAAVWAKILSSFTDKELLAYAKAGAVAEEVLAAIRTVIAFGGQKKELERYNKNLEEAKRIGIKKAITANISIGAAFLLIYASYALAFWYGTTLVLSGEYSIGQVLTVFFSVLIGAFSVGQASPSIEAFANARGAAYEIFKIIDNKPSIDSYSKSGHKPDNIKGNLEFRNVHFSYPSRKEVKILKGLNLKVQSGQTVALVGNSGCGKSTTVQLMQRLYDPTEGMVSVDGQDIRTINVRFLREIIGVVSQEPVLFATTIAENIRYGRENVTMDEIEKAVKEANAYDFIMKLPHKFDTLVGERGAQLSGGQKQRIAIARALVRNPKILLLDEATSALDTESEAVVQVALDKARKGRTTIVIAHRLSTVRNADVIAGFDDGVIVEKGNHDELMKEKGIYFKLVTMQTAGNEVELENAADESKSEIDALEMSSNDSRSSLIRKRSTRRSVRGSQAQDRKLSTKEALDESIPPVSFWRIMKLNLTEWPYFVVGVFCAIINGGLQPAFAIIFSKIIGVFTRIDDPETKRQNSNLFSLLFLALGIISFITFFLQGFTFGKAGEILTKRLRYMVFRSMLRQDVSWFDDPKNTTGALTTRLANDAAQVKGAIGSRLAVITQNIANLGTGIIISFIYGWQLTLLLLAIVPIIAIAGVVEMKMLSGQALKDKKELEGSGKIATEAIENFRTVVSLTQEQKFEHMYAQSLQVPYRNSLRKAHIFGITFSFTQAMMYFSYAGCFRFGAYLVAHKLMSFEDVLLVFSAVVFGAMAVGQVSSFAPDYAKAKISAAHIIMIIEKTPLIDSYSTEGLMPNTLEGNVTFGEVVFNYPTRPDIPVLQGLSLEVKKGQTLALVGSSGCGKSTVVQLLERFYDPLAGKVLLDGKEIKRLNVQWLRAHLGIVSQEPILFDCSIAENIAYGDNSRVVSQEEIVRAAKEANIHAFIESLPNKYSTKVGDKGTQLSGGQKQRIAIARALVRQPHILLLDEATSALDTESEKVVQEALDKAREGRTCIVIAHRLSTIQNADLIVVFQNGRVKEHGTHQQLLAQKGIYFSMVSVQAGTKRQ
Sequence of MRP2 (Q92887 whole entry): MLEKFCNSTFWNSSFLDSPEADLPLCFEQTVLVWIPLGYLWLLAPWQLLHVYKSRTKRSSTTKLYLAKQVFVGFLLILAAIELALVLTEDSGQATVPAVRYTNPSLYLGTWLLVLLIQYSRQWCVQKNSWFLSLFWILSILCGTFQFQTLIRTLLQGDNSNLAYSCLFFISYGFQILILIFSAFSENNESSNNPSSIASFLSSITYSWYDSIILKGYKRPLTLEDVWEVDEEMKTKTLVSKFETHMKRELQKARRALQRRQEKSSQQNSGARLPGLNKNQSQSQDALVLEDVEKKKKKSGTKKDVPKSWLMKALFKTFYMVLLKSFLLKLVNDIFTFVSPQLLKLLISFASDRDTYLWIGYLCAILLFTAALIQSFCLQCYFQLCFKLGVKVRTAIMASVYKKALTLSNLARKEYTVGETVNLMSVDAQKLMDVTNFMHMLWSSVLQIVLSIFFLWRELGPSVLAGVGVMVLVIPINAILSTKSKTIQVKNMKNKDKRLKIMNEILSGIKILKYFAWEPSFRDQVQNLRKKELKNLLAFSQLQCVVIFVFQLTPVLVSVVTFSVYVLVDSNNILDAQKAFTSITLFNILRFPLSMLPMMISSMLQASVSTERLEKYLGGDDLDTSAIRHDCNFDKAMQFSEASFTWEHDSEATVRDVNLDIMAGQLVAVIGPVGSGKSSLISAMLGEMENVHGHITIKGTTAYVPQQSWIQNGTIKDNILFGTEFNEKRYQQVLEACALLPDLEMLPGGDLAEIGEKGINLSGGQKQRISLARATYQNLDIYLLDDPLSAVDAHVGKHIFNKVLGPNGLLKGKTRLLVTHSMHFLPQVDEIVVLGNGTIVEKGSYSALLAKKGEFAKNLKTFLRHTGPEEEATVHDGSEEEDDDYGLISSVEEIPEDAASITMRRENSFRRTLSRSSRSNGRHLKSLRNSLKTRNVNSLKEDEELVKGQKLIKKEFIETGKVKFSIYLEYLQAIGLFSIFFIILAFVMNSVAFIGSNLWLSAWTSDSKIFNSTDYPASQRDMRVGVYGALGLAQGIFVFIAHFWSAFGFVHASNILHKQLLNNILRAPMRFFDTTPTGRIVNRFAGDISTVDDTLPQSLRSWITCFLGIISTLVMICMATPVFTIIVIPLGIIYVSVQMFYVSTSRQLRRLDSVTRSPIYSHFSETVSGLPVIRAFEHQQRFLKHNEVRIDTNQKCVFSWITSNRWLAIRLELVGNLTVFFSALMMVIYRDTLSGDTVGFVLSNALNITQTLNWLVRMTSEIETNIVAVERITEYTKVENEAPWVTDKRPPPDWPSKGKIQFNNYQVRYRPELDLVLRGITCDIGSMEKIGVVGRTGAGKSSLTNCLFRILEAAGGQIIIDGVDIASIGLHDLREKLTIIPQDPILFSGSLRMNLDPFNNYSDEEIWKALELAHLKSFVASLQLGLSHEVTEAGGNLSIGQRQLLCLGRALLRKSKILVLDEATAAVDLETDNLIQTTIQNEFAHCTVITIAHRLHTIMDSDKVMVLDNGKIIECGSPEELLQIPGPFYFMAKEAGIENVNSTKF

SMILES | increase of exposure caused by Odalasvir ([1]; DDI study results) [×] | increase of exposure caused by SMV ([1]; DDI study results) | t1/2term [2, 6] [h] | t1/2term ([2]; Arm 2: FDC02) [h] | t1/2term ([2]; Arm 3: FDC04) [h] | t1/2term ([2]; Arm 4: FDC01) [h] | in vitro inhibition of OATP1B1 (OATP1B1) | CYP inhibition potential (CYP) | AUC∞ ([2]; Arm 2: FDC02) [ng·h/mL] | AUClast ([2]; Arm 3: FDC04) [ng·h/mL] | Cmax [2, 7] [ng/mL] | AUClast ([2]; Arm 4: FDC01) [ng·h/mL] | AUC∞ ([2]; Arm 4: FDC01) [ng·h/mL] | other results
CC(C)OC(=O)[C@H](C)N[P@](=O)(OC[C@@]1(F)O[C@@H](n2ccc(=O)[nH]c2=O)[C@](C)(O)[C@@H]1O)Oc1ccccc1 [Compound (III), isopropyl ((S)-(((2S,3S,4R,5R)-5-(2,4-dioxo-3,4-dihydropyrimidin-1 (2H)-yl)-2-fluoro-3,4-dihydroxy-4-methyltetrahydrofuran-2-yl)methoxy)(phenoxy)phosphoryl)-L-alaninate] | 4 | 3 × | 0.6 ± 0.1 | 0.7 ± 0.2 | 0.7 ± 0.1 | 0.6 ± 0.1 | no in vitro inhibition | limited | – | – | – | – | – | bioavailability when SMV and ODV are co-administered with Compound (III), compared to Compound (III) alone ([1]; both, human, in vivo): approximately 8 fold; activity against genotype 3 in vitro (HCV genotype 3): effective; in vitro inhibition of BCRP (BCRP): no in vitro inhibition; in vitro inhibition of OATP1B3 (OATP1B3): no in vitro inhibition
C[C@]1(O)[C@H](n2ccc(=O)[nH]c2=O)O[C@](F)(CO)[C@H]1O [Compound A-1] | 1.5 | no apparent effect | 19.6 ± 2.7 | 20.5 ± 3.3 | 20.2 ± 3.5 | 18.3 ± 3.5 | – | – | 4369 ± 1345 | 4714 ± 1310 | 607 ± 208 | 4693 ± 1418 | 4555 ± 787 | change of A-1 exposure on increasing the Compound (III) dose from 400 to 800 mg ([3]; in vivo): less than proportionally
C[C@H](NP(=O)(O)OC[C@@]1(F)O[C@@H](n2ccc(=O)[nH]c2=O)[C@](C)(O)[C@@H]1O)C(=O)O [Compound A-3] | 2.6 | 1.6 × | 2.6 ± 1.4 | 2.3 ± 0.6 | 2.9 ± 1.5 | 2.5 ± 0.7 | – | – | 817 ± 133 | – | 197 ± 62.1 | 909 ± 244 | 926 ± 245 | AUClast ([2]; Arm 2: FDC02): 790 ± 157 ng·h/mL
COc1ccc2c(O[C@@H]3C[C@H]4C(=O)N[C@]5(C(=O)NS(=O)(=O)C6CC6)C[C@H]5/C=C\CCCCN(C)C(=O)[C@@H]4C3)cc(-c3nc(C(C)C)cs3)nc2c1C [Simeprevir, reference compound] | 1.6 | – | 8.3 ± 1.8 | 8.7 ± 2.3 | 9.1 ± 1.6 | 8.5 ± 1.5 | strong in vitro inhibition | limited | – | 12893 ± 5828 | – | – | – | effect of Compound (III) on SMV or ODV ([1]; DDI study results): no apparent effect; increase of exposure, effect of the three Compounds ([1]; DDI study results): 1.6 ×; increase of exposure on co-administration of Compounds I, II and III ([1]; human in vivo study (Example 1)): 1.6 times; effect of Compound (III) on bioavailability of SMV or ODV ([1]; human, in vivo): does not alter; increase of bioavailability of SMV by ODV ([1]; human, in vivo): 1.6 fold; observed exposures in Cohort 1 / group (i) ([3]; Compound (III) 400 mg, ODV 50 mg QD, SMV 100 mg QD): higher than anticipated; decrease of SMV exposure on reducing SMV dosing from 100 mg to 75 mg QD ([3]; in vivo): less than proportionally; Cmax ([2]; Arm 3: FDC04 (SMV 100 mg + ODV 50 mg spray dried with HPMC-AS L 1/3 w/w + Compound (III) 800 mg)): 906 ± 321 ng/mL; AUC∞ ([2]; Arm 3: FDC04): 13449 ± 6015 ng·h/mL; in vitro inhibition of P-gp (P-gp): strong/moderate; in vitro inhibition of MRP2 (MRP2): strong/moderate; in vitro inhibition of BSEP (BSEP): strong/moderate; increase in exposure of Digoxin [4]: 35%; increase in Rosuvastatin exposure [5]: 3 fold
